Experimental data published in PMC8571316 (Scientific Reports, 2021).
Peptide text beside a SMILES is read from it. * marks the point of attachment. Biotin = O=C1N[C@H]2[C@H](CS[C@H]2CCCCC(=O)*)N1; PEG4 = NCCOCCOCCOCCOCCC(=O)O

Tested on: Influenza HA
Assay type: binding

Compound | cross-reactivity (selectivity of binding, in words)
CC(C)C[C@H](NC(=O)[C@H](CC(=O)O)NC(=O)[C@H](CCC(=O)O)NC(=O)[C@H](Cc1c[nH]c2ccccc12)NC(=O)[C@H](CCC(=O)O)NC(=O)[C@H](CC(C)C)NC(=O)[C@H](CC(N)=O)NC(=O)[C@H](Cc1ccccc1)NC(=O)[C@@H](NC(=O)[C@H](Cc1ccccc1)NC(=O)[C@H](CC(C)C)NC(=O)[C@H](Cc1ccccc1)NC(=O)[C@H](CC(C)C)NC(=O)[C@@H](NC(=O)[C@H](Cc1c[nH]c2ccccc12)NC(=O)[C@H](CC(=O)O)NC(=O)CCOCCOCCOCCOCCNC(=O)CCCC[C@@H]1SC[C@@H]2NC(=O)N[C@@H]21)[C@@H](C)O)C(C)C)C(=O)N[C@@H](Cc1ccccc1)C(=O)N[C@@H](Cc1ccc(O)cc1)C(=O)O [Peptide P89] ({Biotin-PEG4}-DWTLFLFVFNLEWEDLFY-OH; C-terminus assumed) | some level of cross-reactivity
CC[C@H](C)[C@H](NC(=O)[C@H](CCC(=O)O)NC(=O)[C@H](Cc1ccc(O)cc1)NC(=O)[C@H](Cc1ccc(O)cc1)NC(=O)[C@H](CCSC)NC(=O)[C@H](Cc1c[nH]cn1)NC(=O)[C@H](CCSC)NC(=O)[C@H](Cc1c[nH]c2ccccc12)NC(=O)[C@H](CCCCN)NC(=O)[C@H](CC(=O)O)NC(=O)[C@H](Cc1c[nH]c2ccccc12)NC(=O)[C@H](CCC(=O)O)NC(=O)[C@@H](NC(=O)[C@H](CCCCN)NC(=O)CCOCCOCCOCCOCCNC(=O)CCCC[C@@H]1SC[C@@H]2NC(=O)N[C@@H]21)[C@@H](C)O)C(=O)N[C@@H](Cc1ccccc1)C(=O)N[C@@H](Cc1ccc(O)cc1)C(=O)N[C@@H](CCC(=O)O)C(=O)N[C@@H](CC(=O)O)C(=O)O [Peptide P100] ({Biotin-PEG4}-KTEWDKWMHMYYEIFYED-OH; C-terminus assumed) | some level of cross-reactivity
CC[C@H](C)[C@H](NC(=O)[C@H](CC(=O)O)NC(=O)[C@H](Cc1ccccc1)NC(=O)[C@H](CC(N)=O)NC(=O)CCOCCOCCOCCOCCNC(=O)CCCC[C@@H]1SC[C@@H]2NC(=O)N[C@@H]21)C(=O)N[C@@H](CC(C)C)C(=O)N[C@@H](CC(C)C)C(=O)N[C@@H](Cc1ccccc1)C(=O)N[C@H](C(=O)N[C@@H](Cc1ccccc1)C(=O)N[C@@H](CC(N)=O)C(=O)N[C@@H](Cc1ccc(O)cc1)C(=O)N[C@@H](CCC(=O)O)C(=O)N[C@@H](CCSC)C(=O)N[C@@H](CCC(=O)O)C(=O)N[C@@H](CC(=O)O)C(=O)N[C@@H](CCCCN)C(=O)N[C@@H](Cc1ccccc1)C(=O)N[C@@H](Cc1ccc(O)cc1)C(=O)O)C(C)C [Peptide P168] ({Biotin-PEG4}-NFDILLFVFNYEMEDKFY-OH; C-terminus assumed) | some level of cross-reactivity
CC[C@H](C)[C@H](NC(=O)[C@@H](NC(=O)[C@H](Cc1ccc(O)cc1)NC(=O)[C@H](Cc1ccccc1)NC(=O)[C@H](Cc1ccc(O)cc1)NC(=O)[C@@H](NC(=O)[C@H](CCC(=O)O)NC(=O)[C@H](CCSC)NC(=O)[C@H](Cc1c[nH]c2ccccc12)NC(=O)[C@H](Cc1c[nH]cn1)NC(=O)[C@H](CO)NC(=O)[C@H](Cc1ccccc1)NC(=O)[C@H](CCSC)NC(=O)[C@H](CC(=O)O)NC(=O)[C@H](Cc1c[nH]c2ccccc12)NC(=O)[C@H](CC(=O)O)NC(=O)[C@@H](NC(=O)[C@H](CCCCN)NC(=O)CCOCCOCCOCCOCCNC(=O)CCCC[C@@H]1SC[C@@H]2NC(=O)N[C@@H]21)[C@@H](C)O)[C@@H](C)CC)C(C)C)C(=O)O [Peptide P180] ({Biotin-PEG4}-KTDWDMFSHWMEIYFYVI-OH; C-terminus assumed) | some level of cross-reactivity
